# Measured values reported in patent US6355615B1, “Desoxycyclodepsipeptides and their use for combatting endoparasites” (Bayer Aktiengesellschaft, priority 1997, dated 2002).
# Tested on: Haemonchus contortus
# Test: Haemonchus contortus/sheep: nematode egg count in feces before and after oral treatment
# Assay type: in vivo
# Conditions: Haemonchus contortus, po, read-out: effective dose (Dosis effectiva)
# Procedure: Haemonchus contortus/sheep
# Sheep experimentally infected with Haemonchus contortus were treated after expiry of the prepatency time of the parasite.
# The active compounds were administered orally in gelatin capsules as pure active ingredient.
# The efficacy is determined by quantitatively counting the nematode eggs excreted with the feces before and after treatment.
# Complete cessation of oviposition after treatment means that the nematodes have been expelled or are so damaged that they no longer produce eggs (Dosis effectiva).
row,Structure (SMILES),minimal effective dose [mg/kg]
1,"CC(C)C[C@H]1C(=O)O[C@H](Cc2ccccc2)C(=O)N(C)[C@@H](CC(C)C)C(=O)O[C@H](C)CN(C)[C@@H](CC(C)C)C(=O)O[C@H](Cc2ccccc2)C(=O)N(C)[C@@H](CC(C)C)C(=O)O[C@H](C)CN1C [Example 1-b, 8,20-dibenzyl-5,11,17,23-tetraisobutyl-2,4,10,14,16,22-hexamethyl-1,7,13,19-tetraoxa-4,10,16,22-tetraaza-cyclotetracosan-6,9,12,18,21,24-hexaone]",< 1
2,"CC(C)C[C@H]1C(=O)O[C@H](Cc2ccccc2)CN(C)[C@@H](CC(C)C)C(=O)O[C@H](C)CN(C)[C@@H](CC(C)C)C(=O)O[C@H](Cc2ccccc2)CN(C)[C@@H](CC(C)C)C(=O)O[C@H](C)CN1C [Example 2, 8,20-dibenzyl-5,11,17,23-tetraisobutyl-2,4,10,14,16,22-hexamethyl-1,7,13,19-tetraoxa-4,10,16,22-tetraazacyclotetracosan-6,12,18,24-tetraone]",< 1
3,"CC(C)C[C@H]1C(=O)O[C@H](Cc2ccc(N3CCOCC3)cc2)C(=O)N(C)[C@@H](CC(C)C)C(=O)O[C@H](C)CN(C)[C@@H](CC(C)C)C(=O)O[C@H](Cc2ccccc2N2CCOCC2)C(=O)N(C)[C@@H](CC(C)C)C(=O)O[C@H](C)CN1C [Example 6, 5,11,17,23-tetraisobutyl-2,4,10,14,16,22-hexamethyl-8-[-4-(N-morpholinyl)benzyl]-20-[2-(N-morpholinyl)benzyl]-1,7,13,19-tetraoxa-4,10,16,22-tetraaza-cyclotetracosan-6,9,12,18,21,24-hexaone]",< 1
4,"CC(C)C[C@H]1C(=O)O[C@H](Cc2ccc(-n3cccc3)cc2)C(=O)N(C)[C@@H](CC(C)C)C(=O)O[C@H](C)CN(C)[C@@H](CC(C)C)C(=O)O[C@H](Cc2ccc(-n3cccc3)cc2)C(=O)N(C)[C@@H](CC(C)C)C(=O)O[C@H](C)CN1C [Example 14, 8,20-bis-[4-(1-pyrrolyl)-benzyl]-5,11,17,23-tetraisobutyl-2,4,10,14,16,22-hexamethyl-1,7,13,19-tetraoxa-4,10,16,22-tetraaza-cyclotetracosan-6,9,12,18,21,24-hexaone]",< 1
5,"COCCN(CCOC)c1ccc(CC2OC(=O)C(CC(C)C)N(C)CC(C)OC(=O)C(CC(C)C)N(C)C(=O)C(Cc3ccc(N(CCOC)CCOC)cc3)OC(=O)C(CC(C)C)N(C)CC(C)OC(=O)C(CC(C)C)N(C)C2=O)cc1 (stereo not drawn) [Example 16-c, 8,20-bis-[4-bis-(β-methoxyethyl)aminobenzyl)-5,11,17,23-tetraisobutyl-2,4,10,14,16,22-hexamethyl-1,7,13,19-tetraoxa-4,10,16,22-tetraazacyclotetracosan-6,9,12,18,21,24-hexaone]",< 1
6,"CC(C)C[C@H]1C(=O)O[C@H](Cc2ccc(NCc3ccco3)cc2)C(=O)N(C)[C@@H](CC(C)C)C(=O)O[C@H](C)CN(C)[C@@H](CC(C)C)C(=O)O[C@H](Cc2ccc(NCc3ccco3)cc2)C(=O)N(C)[C@@H](CC(C)C)C(=O)O[C@H](C)CN1C [Example 19, 8,20-bis-N-[4-(2-furylmethylanino)benzyl]-5,11,17,23-tetraisobutyl-2,4,10,14,16,22-hexamethyl-1,7,13,19-tetraoxa-4,10,16,22-tetraaza-cyclotetracosan-6,9,12,18,21,24-hexaone]",< 1
7,"CC(=O)N1CCN(S(=O)(=O)c2ccc(CC3OC(=O)C(CC(C)C)N(C)CC(C)OC(=O)C(CC(C)C)N(C)C(=O)C(Cc4ccc(S(=O)(=O)O)cc4)OC(=O)C(CC(C)C)N(C)CC(C)OC(=O)C(CC(C)C)N(C)C3=O)cc2)CC1 (centres unmarked) [Example 21-b, 8-[4-(4-acetylpiperazin-1-yl)-sulfonyl-benzyl]-20-(4-sulfobenzyl)-5,11,17,23-tetraisobutyl-2,4,10,14,16,22-hexamethyl-1,7,13,19-tetraoxa-4,10,16,22-tetraaza-cyclotetracosan-6,9,12,18,21,24-hexaone]",1

# Same assay, conditions: sheep experimentally infected with Haemonchus contortus; oral, gelatin capsules, pure active ingredient; complete cessation of oviposition after treatment
row,Structure (SMILES),effective dose (Dosis effectiva) [mg/kg]
1,"COCCNc1ccc(CC2OC(=O)C(CC(C)C)N(C)C(=O)C(C)OC(=O)C(CC(C)C)N(C)C(=O)C(Cc3ccc(N(CCOC)CCOC)cc3)OC(=O)C(CC(C)C)N(C)CC(C)OC(=O)C(CC(C)C)N(C)C2=O)cc1 (stereo not drawn) [Example 17-a, 8(or 20)-[4-bis-(β-methoxyethyl)aminobenzyl]-20(or 8)-(4-β-methoxyethylaminobenzyl)-5,11,17,23-tetraisobutyl-2,4,10,14,16,22-hexamethyl-1,7,13,19-tetraoxa-4,10,16,22-tetraaza-cyclotetracosan-6,9,12,15,18,21,24-heptaone]",<1

# Same assay, conditions: sheep experimentally infected with Haemonchus contortus; oral, gelatin capsules, pure active ingredient; complete cessation of oviposition after treatment; read-out: effective dose (Dosis effectiva)
row,Structure (SMILES),minimal effective dose [mg/kg]
1,"CC(C)C[C@H]1C(=O)O[C@H](Cc2ccc(N3CCOCC3)cc2)C(=O)N(C)[C@@H](CC(C)C)C(=O)O[C@H](C)CN(C)[C@@H](CC(C)C)C(=O)O[C@H](Cc2ccc(N3CCOCC3)cc2)C(=O)N(C)[C@@H](CC(C)C)C(=O)O[C@H](C)CN1C [Example 5, 5,11,17,23-tetraisobutyl-2,4,10,14,16,22-hexamethyl-8,20-bis-[4-(N-morpholinyl)benzyl]-1,7,13,19-tetraoxa-4,10,16,22-tetraaza-cyclotetracosan-6,9,12,18,21,24-hexaone]",< 1
2,"CC(C)CC1C(=O)OC(C)CN(C)C(CC(C)C)C(=O)OC(Cc2ccc(N3CCOCC3)cc2)C(=O)N(C)C(CC(C)C)C(=O)OC(C)CN(C)C(CC(C)C)C(=O)OC(Cc2ccc(N3CCOCC3)cc2)CN1C (centres unmarked) [Example 7-c, 5,11,17,23-tetraisobutyl-2,4,10,14,16,22-hexamethyl-8,20-bis-[4-(N-morpholinyl)benzyl]-1,7,13,19-tetraoxa-4,10,16,22-tetraaza-cyclotetracosan-6,9,12,18,24-pentaone]",< 1
3,"CC(C)CC1C(=O)OC(C)CN(C)C(CC(C)C)C(=O)OC(Cc2ccc(N3CCOCC3)cc2)CN(C)C(CC(C)C)C(=O)OC(C)CN(C)C(CC(C)C)C(=O)OC(Cc2ccc(N3CCOCC3)cc2)CN1C (centres unmarked) [Example 7-d, 5,11,17,23-tetraisobutyl-2,4,10,14,16,22-hexamethyl-8,20-bis-[4-(N-morpholinyl)benzyl]-1,7,13,19-tetraoxa-4,10,16,22-tetraaza-cyclotetracosan-6,12,18,24-tetraone]",< 1
4,"COCCNc1ccc(CC2OC(=O)C(CC(C)C)N(C)CC(C)OC(=O)C(CC(C)C)N(C)C(=O)C(Cc3ccc(NCCOC)cc3)OC(=O)C(CC(C)C)N(C)CC(C)OC(=O)C(CC(C)C)N(C)C2=O)cc1 (stereo not drawn) [Example 16-a, 8,20-bis-(4-β-methoxyethylaminobenzyl)-5,11,17,23-tetraisobutyl-2,4,10,14,16,22-hexamethyl-1,7,13,19-tetraoxa-4,10,16,22-tetraaza-cyclotetracosan-6,9,12,18,21,24-hexaone]",< 1

# Tested on: not given
# Test: not given
# Conditions: not given
row,Structure (SMILES),melting point [°C]
1,CC(C)C[C@H]1C(=O)O[C@H](Cc2ccc(OCc3ccco3)cc2)C(=O)N(C)[C@@H](CC(C)C)C(=O)O[C@H](C)CN(C)[C@@H](CC(C)C)C(=O)O[C@H](Cc2ccc(OCc3ccco3)cc2)C(=O)N(C)[C@@H](CC(C)C)C(=O)O[C@H](C)CN1C (stereo in doubt),116 to 119
2,"CC(C)C[C@H]1C(=O)O[C@H](Cc2ccccc2)C(=O)N(C)[C@@H](CC(C)C)C(=O)O[C@H](C)CN(C)[C@@H](CC(C)C)C(=O)O[C@H](Cc2ccccc2)C(=O)N(C)[C@@H](CC(C)C)C(=O)O[C@H](C)CN1C [Example 1-b, 8,20-dibenzyl-5,11,17,23-tetraisobutyl-2,4,10,14,16,22-hexamethyl-1,7,13,19-tetraoxa-4,10,16,22-tetraaza-cyclotetracosan-6,9,12,18,21,24-hexaone]",149 to 150
